The values that follow come from patent US7241789B2, “Substituted indoles and their use as integrin antagonists” (3-Dimensional Pharmaceutical, Inc., priority 2001, dated 2007).

For the experiment, the target named is T1, human αvβ3 (Homo sapiens, UniProt P05106+P06756).
T1 construct: purchased Chemicon CC1019
T1 sequence (P06756 31-889 limits assumed): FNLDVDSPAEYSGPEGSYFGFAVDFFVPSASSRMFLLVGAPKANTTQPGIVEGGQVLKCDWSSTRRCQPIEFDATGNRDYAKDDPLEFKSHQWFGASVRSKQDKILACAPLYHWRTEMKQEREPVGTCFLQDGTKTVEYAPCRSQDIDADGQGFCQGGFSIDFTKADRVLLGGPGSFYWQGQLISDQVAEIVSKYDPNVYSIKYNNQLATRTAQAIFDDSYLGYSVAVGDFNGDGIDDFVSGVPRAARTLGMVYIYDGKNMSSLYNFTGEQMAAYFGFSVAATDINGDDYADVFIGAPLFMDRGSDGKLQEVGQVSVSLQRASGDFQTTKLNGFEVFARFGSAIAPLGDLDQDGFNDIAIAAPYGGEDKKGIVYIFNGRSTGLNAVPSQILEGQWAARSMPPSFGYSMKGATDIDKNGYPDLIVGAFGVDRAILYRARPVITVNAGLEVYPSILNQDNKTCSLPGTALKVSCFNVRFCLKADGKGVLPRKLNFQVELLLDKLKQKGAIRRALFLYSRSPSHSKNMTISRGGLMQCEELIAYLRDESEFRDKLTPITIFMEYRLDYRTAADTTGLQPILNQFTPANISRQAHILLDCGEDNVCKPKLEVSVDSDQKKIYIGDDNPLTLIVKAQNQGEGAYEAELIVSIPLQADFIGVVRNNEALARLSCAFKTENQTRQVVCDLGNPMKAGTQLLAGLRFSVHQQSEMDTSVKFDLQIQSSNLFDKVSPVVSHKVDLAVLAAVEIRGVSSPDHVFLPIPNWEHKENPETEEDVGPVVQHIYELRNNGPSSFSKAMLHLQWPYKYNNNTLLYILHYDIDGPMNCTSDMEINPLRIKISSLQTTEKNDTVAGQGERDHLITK
T1 sequence (P06756 891-1048 limits assumed): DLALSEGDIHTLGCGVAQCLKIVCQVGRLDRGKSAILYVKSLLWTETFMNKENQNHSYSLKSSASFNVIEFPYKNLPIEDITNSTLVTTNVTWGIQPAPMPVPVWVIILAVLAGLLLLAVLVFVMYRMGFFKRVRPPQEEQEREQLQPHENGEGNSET
T1 sequence (P05106 27-788): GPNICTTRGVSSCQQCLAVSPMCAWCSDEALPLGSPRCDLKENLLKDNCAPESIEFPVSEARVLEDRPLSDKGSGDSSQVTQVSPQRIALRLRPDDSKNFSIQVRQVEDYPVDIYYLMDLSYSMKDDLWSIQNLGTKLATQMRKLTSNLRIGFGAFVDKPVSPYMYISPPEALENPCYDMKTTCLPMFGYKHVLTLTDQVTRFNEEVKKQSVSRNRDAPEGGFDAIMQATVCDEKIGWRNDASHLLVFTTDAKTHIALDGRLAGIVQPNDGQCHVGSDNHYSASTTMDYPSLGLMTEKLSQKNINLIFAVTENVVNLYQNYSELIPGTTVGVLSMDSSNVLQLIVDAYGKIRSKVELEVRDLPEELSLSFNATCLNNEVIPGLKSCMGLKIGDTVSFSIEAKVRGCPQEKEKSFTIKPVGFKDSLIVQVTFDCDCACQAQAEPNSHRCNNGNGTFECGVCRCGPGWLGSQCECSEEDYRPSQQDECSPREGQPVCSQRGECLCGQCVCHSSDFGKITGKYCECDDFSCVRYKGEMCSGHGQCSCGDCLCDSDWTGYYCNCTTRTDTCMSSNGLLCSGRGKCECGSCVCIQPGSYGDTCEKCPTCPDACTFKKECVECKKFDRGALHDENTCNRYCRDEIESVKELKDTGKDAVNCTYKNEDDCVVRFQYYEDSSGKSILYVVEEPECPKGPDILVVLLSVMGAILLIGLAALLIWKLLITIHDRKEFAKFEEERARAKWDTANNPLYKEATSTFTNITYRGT
As to the kind of experiment: αvβ3-vitronectin Assay. Particulars: inhibition of binding of biotinylated human vitronectin to plate-coated human αvβ3, ELISA, room temperature. The protocol:
The assay is based on the method of Dennis (Dennis, M. S., et al., Proteins 15: […] (1993)). Costar 9018 flat-bottom 96-well ELISA plates were coated overnight at […] with 100 μL/well of 10 μg/mL human fibrinogen (Calbiochem 341578) in 20 mM Tris-HCl pH 7.5, 150 mM NaCl, 2 mM CaCl2, 0.02% NaN3 (TAC buffer), and blocked for 1 hr at 37° C. with 150 μL/well of TAC buffer containing 0.05% Tween 20 and 1% bovine serum albumin (TACTB buffer). After washing 3 times with 200 μL/well of 10 mM Na2 HPO4 pH 7.5, 150 mM NaCl, 0.01% Tween 20 (PBST buffer), controls or test compound (0.027–20.0 μM) were mixed with 40 μg/mL human GPIIbIIIa (Enzyme Research Laboratories) in TACTB buffer, and 100 μL/well of these solutions were incubated for 1 hr at 37° C. The plate was then washed 5 times with PBST buffer, and 100 μL/well of a monoclonal anti-GPIIbIIIa antibody in TACTB buffer (1 μg/mL, Enzyme Research Laboratories MabGP2b3a) was incubated at 37° C. for 1 hr. After washing (5 times with PBST buffer), 100 μL/well of goat anti-mouse IgG conjugated to horseradish peroxidase (Kirkegaard & Perry 14–23–06) was incubated at 37° C. for 1 hr (25 ng/mL in PBST buffer), followed by a 6-fold PBST buffer wash. The plate was developed by adding 100 μL/well of 0.67 mg o-phenylenediamine dihydrochloride per mL of 0.012% H2O2, 22 mM sodium citrate, 50 mM sodium phosphate, pH 5.0 at room temperature. The reaction was stopped with 50 μL/well of 2M H2SO4, and the absorbence at 492 nm was recorded. Percent (%) inhibition was calculated from the average of three separate determinations relative to buffer controls (no test compound added), and a four parameter fit (Marquardt, D. W., J. Soc. Indust. Appl. Math. 11:431–441 (1963)) was used to estimate the half maximal inhibition concentration (IC50).
The assay was based on the method of Niiya (Niiya, K., et al., Blood 70:475–483 (1987)). Costar 9018 flat-bottom 96-well ELISA plates were coated overnight at room temperature with 100 μL/well of 0.4 μg/mL human αvβ3 (Chemicon CC1019) in TS buffer (20 mM Tris-HCl pH 7.5, 150 mM NaCl, 1 mM CaCl2, 1 mM MgCl2, 1 mM MnCl2). All subsequent steps were performed at room temperature. Plates were blocked for 2 hr with 150 μL/well of TS buffer containing 1% BSA (TSB buffer), and washed 3 times with 200 μL/well of PBST buffer. Controls or test compound (0.0001–20.0 μM) were mixed with 1 μg/mL of human vitronectin (Chemicon CCO80) that had been biotinylated in-house with sulfo-NHS-LC-LC-biotin (Pierce 21338, 20:1 molar ratio), and 100 μL/well of these solutions (in TSB buffer) were incubated for 2 hr. The plate was then washed 5 times with PBST buffer, and 100 μL/well of 0.25 μg/mL NeutrAvidin-horseradish peroxidase conjugate (Pierce 31001) in TSB buffer was incubated for 1 hr. Following a 5-fold PBST buffer wash, the plate was developed and results were calculated as described for the fibrinogen-IIbIIIa assay.
In the case of “3-{5-[3-(2-Pyridylamino)propoxy]indolyl}propanoic acid ammonium salt [Example 1]”, the IC50 is 0.5 µM.

In turn, `O=C(O)[C@@H]1C[C@H]1n1ccc2cc(OCCCNc3ccccn3)ccc21` (relative stereo) [Example 4] had an IC50 of 0.67 µM.

On to `CNc1cccc(CCOc2ccc3c(ccn3CCC(=O)O)c2)n1` [Example 5, 3-(5-{2-[6-(Methylamino)-2-pyridyl]ethoxy}indolyl)propanoic acid], for which the IC50 is 0.05 µM.

The molecule `CC(Cn1ccc2cc(OCCCNc3ccccn3)ccc21)C(=O)O` (stereo not shown) [Example 7, 2-Methyl-3-{5-[3-(2-pyridylamino)propoxy]indolyl}propanoic acid] came in with a 50% inhibitory concentration (IC50) of 0.5 µM.

Molecule `CCCC(CC(=O)O)n1ccc2cc(OCCc3ccc4c(n3)NCCC4)ccc21` (stereo not shown) [Example 14, 3-{5-[2-(5,6,7,8-Tetrahydro-[1,8]naphthyridin-2-yl)-ethoxy]-indol-1-yl}-hexanoic acid] gave a concentration for half-maximal inhibition (IC50) of 0.004 µM.

Regarding `O=C(O)CCn1ccc2cc(OCCc3ccc4c(n3)NCCC4)ccc21` [Example 15, 3-{5-[2-(5,6,7,8-Tetrahydro-[1,8]naphthyridin-2-yl)-ethoxy]-indol-1-yl}-propionic acid], the half-maximal inhibitory concentration (IC50) is 0.006 µM. This IC50 lies about 1.5-fold higher than the previous one.

In turn, `O=C(O)CC(c1cccnc1)n1ccc2cc(OCCc3ccc4c(n3)NCCC4)ccc21` (stereo not shown) [Example 38, 3-Pyridin-3-yl-3-{5-[2-(5,6,7,8-tetrahydro-[1,8]naphthyridin-2-yl)-ethoxy]-indol-1-yl}-propionic acid] gave a concentration for half-maximal inhibition (IC50) of 0.00024 µM.

As a reminder, the IC50 is the concentration at which inhibition is half-maximal. Lower therefore signals inhibition by little substance.
